Experimental findings from patent US20100008938A1, “SELF ASSEMBLING AMPHIPHILIC POLYMERS AS ANTIVIRAL AGENTS” (priority 2007, published 2010) are described below.

Data set [1] in a line: Solubilization of dyes in aqueous polymer solution vs water, TLC spot comparison. The following applies: for concentration in 50 mg/ml polymer: 50 mg/ml aqueous C16-Polymer A (Example 1), approximate, from TLC spot intensity.
Data set [2] concerns ATCC VR-1520 (H2N1) Human influenza virus.

What is called solubility is the concentration that dissolves in the medium under given conditions. Read a high solubility as a readily soluble substance. `O=C1OC2(c3cc(Cl)c(O)cc3Oc3cc(O)c(Cl)cc32)c2ccccc21` [Dichlorofluorescein, dichlorofluorescein]: the “concentration in 50 mg/ml polymer” value in data set [1] was “approximately 5 mg/ml”. The solubility in data set [1] (deionized water (unbuffered), water, thermodynamic from solid) is at least 10 µg/mL.

Regarding `Cc1ccccc1/N=N/c1ccc(/N=N/c2c(O)ccc3ccccc23)c(C)c1` [Sudan IV], in data set [1], the “concentration in 50 mg/ml polymer” value is given as “approximately 0.2 mg/ml”. In data set [1] (deionized water, unbuffered, room temperature), the “concentration in H2O” value worked out at 0 ng/mL.

Consider `COC1(C(=O)O)CC(O)C(N)C(C(O)C(O)CO)O1` (stereo not drawn) [positive control, neuraminic acid β-methyl glycoside], for which the body weight loss in data set [2] (7 days) is −9.8%. Besides, the “increase in survival time” value in data set [2] (mouse, in vivo) came to 2.94 h.
